Patent US11229642B2, “Composition and method for reducing neutropenia” (BeyondSpring Pharmaceuticals, Inc., priority 2016, dated 2022)
Where two headings read alike, the source gives them in different places.

Key:
[1] = tested on: topotecan induced neutropenia; test: Example 5: ANC in topotecan induced neutropenia; type: in vivo, adult male Sprague-Dawley rats
Procedure: Topotecan (0.25 or 1.0 mg/kg IV) was administered to adult male Sprague-Dawley rats on Days 1, 3 and 5. Topotecan was administered by intravenous infusion over a period of 30 minutes using a syringe infusion pump and sterile disposable syringes at a dose volume of 10 mL/kg.
Plinabulin (3.75 mg/kg, IP) was dosed 1 hour post topotecan following each topotecan dose. Plinabulin (7.5 mg/kg IP) was dosed 1 hour after the topotecan dose (0.25 mg/kg) on Day 1 only.
Blood collection was performed Days −2, 0, 2, 4, 6, 7, 8, 9, 10 for the pilot and Days −2, 0, 2, 3, 4, 5, 6, 7, 8, 10, 15 for the main study. Blood samples collected on day 3 were analyzed for total and differential blood cell counts.

[2] = tested on: doxorubicin induced neutropenia; test: Example 3: ANC in doxorubicin induced neutropenia; type: in vivo, Male Sprague-Dawley rats; details: for ANC level expressed as Percent Naïve Group (% Naïve): doxorubicin 3 mg/kg, plinabulin 7.5 mg/kg in the combination
Procedure: Male Sprague-Dawley rats were first treated with doxorubicin or vehicle saline (control). […] Each test group included 6 rats. The doxorubicin was administered intravenously, and plinabulin was administered through intraperitoneal injection.

[3] = tested on: cis-platin induced neutropenia; type: in vivo, Male Sprague-Dawley rats
Source text: Male Sprague-Dawley rats were first treated with cis-platin or vehicle saline (control). […] Each test group included 6 rats.
The ANC decreased following cisplatin administration.

[4] = tested on: cyclophosphamide-induced neutropenia; details: for ANCs (Mean ± SD): Day −1 (pre-dose baseline), N = 5 rats per group
Procedure: The control sample contained 7.1% Tween 80 (v/v), 25.5% Propylene glycol (v/v), and 67.4% D5W (5% dextrose in water) (v/v). Each test group included 15 rats.
Blood collection was performed for absolute neutrophil counts in blood samples collected at Day −1 (pre-dose), Day 2 (24 h), Day 3 (48 h), Day 10 (9 days) and Day 15 (14 days).
These were expressed as a percentage of the control level on Day 3.

[5] = tested on: neutropenia caused by cyclophosphamide; test: Example 1: neutrophil count after cyclophosphamide, plinabulin or the combination; type: in vivo, male Sprague-Dawley rats; details: all rats, Days −1, 2, 3 and 10; FIG. 3
Procedure: Fifteen rats each were placed in 4 treatment groups according to Table 1. The indicated doses were administered through intraperitoneal injection on Day 1 with Administration 2 being given 1 hour following Administration 1.
D5W is 5% dextrose in water for injection. For groups that included administration of plinabulin, plinabulin is first dissolved in the Tween 80-PG mixture and then diluted with D5W.
The animals were randomized based on body weight and assigned to groups. Before the initiation of dosing, any assigned animals considered unsuitable for use in the study were replaced by alternate animals obtained from the same shipment and maintained under the same environmental conditions.
Blood was collected by jugular venipuncture for Day −1 bleeds and terminally via abdominal aorta under anesthesia for Day 2 (5 rats per Group i.e. total 20 rats), Day 3 (5 rats per Group i.e. total 20 rats) and Day 10 (5 rats per Group i.e. total 20 rats). After collection, the samples were tested for total and differential cell counts. Five rats per group were terminated on Days 2, 3, and 10. Animals were anesthetized with isoflurane (1-5%) and ˜1-2.0 mL of blood will be collected via abdominal aorta. After collection, 0.3 mL was transferred to EDTA tubes and analyzed for total and differential cell counts. […]

CC[C@@]1(O)C(=O)OCc2c1cc1n(c2=O)Cc2cc3c(CN(C)C)c(O)ccc3nc2-1 [topotecan, reference compound]
induction of neutropenia ([1]; topotecan 1 or 0.25 mg/kg IV on Days 1, 3 and 5, FIGS. 11A, 11B): induced a long-lasting neutropenia

COc1cccc2c1C(=O)c1c(O)c3c(c(O)c1C2=O)C[C@@](O)(C(=O)CO)C[C@@H]3O[C@H]1C[C@H](N)[C@H](O)[C@H](C)O1 [Doxorubicin]
time after administration at which neutropenia effect of doxorubicin was seen ([2]; ANC as percentage of naïve animals, severity increased until Day 5): ≤ 24 h
ANC level, Mean ([2]; Day 2, doxorubicin 3.0 mg/kg IV alone): 4.37 ± 10^3/μL
ANC level expressed as Percent Naïve Group (% Naïve) ([2]; Day 2): 52.6%
ANC level, Mean ([2]; Day 3, doxorubicin 3.0 mg/kg IV alone): 0.88 ± 10^3/μL
ANC level expressed as Percent Naïve Group (% Naïve) ([2]; Day 3): 50.9%
ANC level, Mean ([2]; Day 4, doxorubicin 3.0 mg/kg IV alone): 1.02 ± 10^3/μL
ANC level expressed as Percent Naïve Group (% Naïve) ([2]; Day 4): 30.8%
ANC level, Mean ([2]; Day 5, doxorubicin 3.0 mg/kg IV alone): 0.65 ± 10^3/μL
ANC level expressed as Percent Naïve Group (% Naïve) ([2]; Day 5): 19.2%
ANC level, Mean ([2]; Day 8, doxorubicin 3.0 mg/kg IV alone): 0.97 ± 10^3/μL
ANC level expressed as Percent Naïve Group (% Naïve) ([2]; Day 8): 32.3%
ANC level, Mean ([2]; Day −1 (pre-dose), doxorubicin 3.0 mg/kg IV group): 1.79 ± 10^3/μL
induction of neutropenia ([2]; doxorubicin 3.0 mg/kg): induced a long-lasting neutropenia
duration of ANC decrease following doxorubicin administration ([2]; doxorubicin 3 mg/kg IV single dose): at least 8 days

N.N.[Cl][Pt][Cl] [Cisplatin, reference compound]
ANCs ([3]; Day 3 (cisplatin ANC nadir), cisplatin 6.5 mg/kg alone): 0.93 ± 0.28 10^3 Cells/μL
ANCs ([3]; Day −1 (predose), cisplatin 6.5 mg/kg group): 2.03 ± 0.81 10^3 Cells/μL
Day 3 ANCs Expressed as Percent of Baseline (Day −1) ([3]; cisplatin 6.5 mg/kg alone): 45.8%

CC(C)(C)c1[nH]cnc1/C=c1\[nH]c(=O)/c(=C/c2ccccc2)[nH]c1=O [Plinabulin, (3Z,6Z)-3-Benzylidene-6-{[5-(2-methyl-2-propanyl)-1H-imidazol-4-yl]methylene}-2,5-piperazinedione]
ANCs (Mean ± SD) [4]: 1.69 ± 0.21 10^3 Cells/μL
effect of plinabulin on topotecan-induced neutropenia ([1]; plinabulin 3.75 and 7.5 mg/kg IP, one hour after topotecan): significantly reduced the topotecan-induced neutropenia
reduction of neutropenia caused by cyclophosphamide, time course [5]: reduced the neutropenia caused by cyclophosphamide
ANC level, Mean ([2]; Day 2, plinabulin 7.5 mg/kg IP alone): 5.24 ± 10^3/μL
ANC level, Mean ([2]; Day 3, plinabulin 7.5 mg/kg IP alone): 1.98 ± 10^3/μL
ANC level, Mean ([2]; Day 4, plinabulin 7.5 mg/kg IP alone): 2.17 ± 10^3/μL
ANC level, Mean ([2]; Day 5, plinabulin 7.5 mg/kg IP alone): 2.13 ± 10^3/μL
ANC level, Mean ([2]; Day 8, plinabulin 7.5 mg/kg IP alone): 3.18 ± 10^3/μL
ANC level, Mean ([2]; Day −1 (pre-dose), plinabulin 7.5 mg/kg IP group): 2.02 ± 10^3/μL
ANC in plinabulin only treated rats vs naïve animals ([2]; plinabulin 7.5 mg/kg IP alone, all time points): not statistically different from naïve animals at any time point
effect of plinabulin on doxorubicin effect (ANC), Days 2 and 3 ([2]; plinabulin 7.5 mg/kg, Days 2 and 3 post dose): significantly diminished the effect of doxorubicin
effect of plinabulin on doxorubicin-induced neutropenia, days 5 and 8 ([2]; plinabulin 7.5 mg/kg, days 5 and 8): ameliorated the doxorubicin-induced neutropenia to a lesser degree
effect of plinabulin on doxorubicin-induced neutropenia ([2]; plinabulin 3.5 and 7.5 mg/kg IP, one hour after doxorubicin): significantly reduced the doxorubicin-induced neutropenia
ANCs ([3]; Day 3, plinabulin 4.9 mg/kg alone): 2.42 ± 0.73 10^3 Cells/μL
ANCs ([3]; Day 3, plinabulin 7.5 mg/kg alone): 4.55 ± 1.41 10^3 Cells/μL
ANCs ([3]; Day −1 (predose), plinabulin 4.9 mg/kg group): 1.98 ± 0.47 10^3 Cells/μL
ANCs ([3]; Day −1 (predose), plinabulin 7.5 mg/kg group): 2.12 ± 0.25 10^3 Cells/μL
ANC levels vs predose levels, plinabulin one hour post cisplatin ([3]; plinabulin 2.3 mg/kg, 4.9 mg/kg and 7.5 mg/kg one hour post cisplatin, Day 3): not significantly different from the predose levels
Day 3 ANCs Expressed as Percent of Baseline (Day −1) ([3]; plinabulin 4.9 mg/kg alone): 122.2%
change of ANC levels by plinabulin alone ([3]; plinabulin 4.9 mg/kg alone, Day 3 vs predose): did not change ANC levels
Day 3 ANCs Expressed as Percent of Baseline (Day −1) ([3]; plinabulin 7.5 mg/kg alone): 214.6%

O=P1(N(CCCl)CCCl)NCCCO1 (centres unmarked) [Cyclophosphamide]
ANCs (Mean ± SD) [4]: 1.68 ± 0.19 10^3 Cells/μL
induction of neutropenia ([4]; single intra-peritoneal injection of cyclophosphamide): induced neutropenia in rats at around 48 h
